One data set deals with MCF-7. The experiment in a line: cells. The note with it: Homo sapiens, MCF7; breast adenocarcinoma cell line. It is filed as cell-based.
Data set [1] deals with M. tuberculosis H37Rv. More on the design: method as in Ma et al., 2017. The settings on record: ref Ma et al., 2017; cited from earlier work.
The test system of data set [2] is M. tuberculosis H37Rv. The data set is described as follows: Antitubercular activity assay, broth dilution, auto-luminescent strain. It is filed as cell-based, Mycobacterium tuberculosis.
Another data set deals with Huvec-12. The data set is described as follows: Cytotoxicity assay (CCK-8). It is filed as cell-based. The settings on record: normal human umbilical vein endothelial cell line.
In another data set the test system is HCT116. The data set is described as follows: cells. It is filed as cell-based. The settings on record: Homo sapiens, HCT-116; colon cancer cell line.
The subject of another data set is A549. The experiment in a line: Cytotoxicity assay (CCK-8). The note with it: Homo sapiens, lung cancer cell line. It is filed as cell-based.
Another data set deals with HeLa. The experiment in a line: cells. The note with it: Homo sapiens, cervical carcinoma cell line. Type of data set: cell-based.
Another data set deals with L02. The data set is described as follows: cells. Type of data set: cell-based. The note with it: normal human hepatic cell line.
A further data set concerns HepG2. The experiment in a line: cells. Type of data set: cell-based. The settings on record: Homo sapiens, hepatocellular carcinoma cell line.
For data set [3], the system named is five human cancer cell lines and two normal cell lines. The note with it: MCF-7, A549, HCT116, L02.
For data set [4] the test system is unchanged. The data set is described as follows: cells.
[5] abbreviates: Mycobacterium tuberculosis, H37RV, Day 3rd, read-out: MICs against H37Rv, Day 3rd.
Setting [6] is: Mycobacterium tuberculosis, H37RV, Day 7th, read-out: MICs against H37Rv, Day 7th.
Setting [7] is: Mycobacterium tuberculosis, H37RV, Day 14th, read-out: MICs against H37Rv, Day 14th.
The mark [8] stands for this setting: Day 14th, read-out: MICs against H37Rv, Day 14th.

As a reminder, the IC50 is the concentration that gives 50% inhibition.

The structures appear in SMILES notation. ≈ marks a conversion by molar mass, not a printed value. Where two headings read alike, the source gives them in different places. Starred links: 1 amine or outer side, 2 acyl side, 3 side chain; linkers in the order of their positions; H or OH if unused. Non-standard residues stand in square brackets, D forms with d. Residues, ends and D or L forms follow the SMILES beside them. Groups on a side chain read outwards from the residue. X2 = COC(=O)[C@@H](NC(=O)[C@@H](C)C[C@@H](C(=O)[*:2])N(C)[*:1])[C@@H](C)O; Trp(1-(1,1-Me2-allyl)) = C=CC(C)(C)n1cc(C[C@H](N)C(=O)O)c2ccccc21; NMeGlu(4S-Me) = C[C@@H](C[C@@H](C(=O)[*:2])N(C)[*:1])C(=O)[*:3]; Tyr(3-NO2) = N[C@@H](Cc1ccc(O)c([N+](=O)[O-])c1)C(=O)O; Gly(E-crotyl) = C/C=C/C[C@H](N)C(=O)O; NMeL = CN[C@@H](CC(C)C)C(=O)O

As to `C=CC(C)(C)n1cc(C[C@@H]2NC(=O)[C@H](C/C=C/C)NC(=O)[C@H](CC(C)C)NC(=O)[C@H](C[C@H](C)C(=O)O)N(C)C(=O)[C@H](C)NC(=O)[C@H](Cc3ccc(O)c([N+](=O)[O-])c3)NC(=O)[C@H](CC(C)C)N(C)C2=O)c2ccccc21` [ilamycin F, reference compound] (cyclo(A[NMeGlu(4S-Me)]L[Gly(E-crotyl)][Trp(1-(1,1-Me2-allyl))][NMeL][Tyr(3-NO2)])), the IC50 in the data set with MCF-7 was 32.2 µM; in the data set on Huvec-12, 46.1 µM; with HCT116, 44.8 µM; in the data set with A549, 47 µM; in the data set with HeLa, 31 µM; in the data set with L02, 43.9 µM. For the same compound, the IC50 in the data set on HepG2 is greater than 50 µM. Besides, the “MIC against M. tuberculosis H37Rv” value in the data set with M. tuberculosis H37Rv [1] was 1.2 µM (≈ 1.25 µg/mL). Besides, the MIC was 30.7 µM (≈ 32 µg/mL) with M. tuberculosis H37Rv [2] (setting [5]), 15.4 µM (≈ 16.1 µg/mL) in the data set with M. tuberculosis H37Rv [2] (setting [6]) and 1.9 µM (≈ 1.98 µg/mL) with M. tuberculosis H37Rv [2] (setting [7]).
As for `C=CC(C)(C)n1cc(C[C@@H]2NC(=O)[C@H](C/C=C/C)NC(=O)[C@H](CC(C)C)NC(=O)[C@H](C[C@H](C)C(=O)N[C@H](C(=O)OC)[C@@H](C)O)N(C)C(=O)[C@H](C)NC(=O)[C@H](Cc3ccc(O)c([N+](=O)[O-])c3)NC(=O)[C@H](CC(C)C)N(C)C2=O)c2ccccc21` [Compound 1, ilamycin NJL1] (cyclo(A[X2]L[Gly(E-crotyl)][Trp(1-(1,1-Me2-allyl))][NMeL][Tyr(3-NO2)])), the half-inhibitory concentration (IC50) worked out at 9 µM in the data set with MCF-7; 10.3 µM with Huvec-12; 7.2 µM in the data set on HCT116; 5.7 µM in the data set on A549; 11.3 µM in the data set on HeLa; 6.5 µM in the data set on L02. Moreover, the half-inhibitory concentration (IC50) in data set [4] (read-out: IC50 against MCF-7, A549, HCT116, and L02) is 5.7 to 9 µM; in data set [4] (read-out: IC50 against five human cancer cell lines and two normal cell lines), 5.7 to 11.3 µM; in the data set with HepG2 it was 17.7 µM. For the same compound, the MIC in the data set on M. tuberculosis H37Rv [2] (setting [8]) is 1.7 µM (≈ 1.97 µg/mL); with M. tuberculosis H37Rv [2] (setting [6]) it was 1.7 µM (≈ 1.97 µg/mL); with M. tuberculosis H37Rv [2] (setting [7]), 1.6 to 1.7 µM (≈ 1.85 to 1.97 µg/mL). For the same compound, the “promotion of cytotoxicity compared with ilamycin F” value in [3] was 3–8 fold.
As for `C=CC(C)(C)n1cc(C[C@@H]2NC(=O)[C@H](C/C=C/C)NC(=O)[C@H](CC(C)C)NC(=O)[C@H](C[C@H](C)C(=O)N[C@@H](Cc3c[nH]c4ccccc34)C(=O)OC)N(C)C(=O)[C@H](C)NC(=O)[C@H](Cc3ccc(O)c([N+](=O)[O-])c3)NC(=O)[C@H](CC(C)C)N(C)C2=O)c2ccccc21` [Compound 6, ilamycin NJL6] (cyclo(A[NMeGlu(4S-Me)]([Trp-OMe])L[Gly(E-crotyl)][Trp(1-(1,1-Me2-allyl))][NMeL][Tyr(3-NO2)])), the IC50 in the data set with MCF-7, in the data set with Huvec-12, in the data set with HCT116, with A549, with HeLa and in the data set with L02 was greater than 50 µM in each case. This compound had a half-inhibitory concentration (IC50) with HepG2 greater than 50 µM. In addition, the MIC was 1.7 µM (≈ 2.11 µg/mL) in the data set with M. tuberculosis H37Rv [2] (Day 3rd, read-out: MICs against H37Rv, Day 3rd); 1.7 µM (≈ 2.11 µg/mL) in the data set on M. tuberculosis H37Rv [2] (setting [8]); 1.6 to 3.5 µM (≈ 1.99 to 4.35 µg/mL) in the data set with M. tuberculosis H37Rv [2] (setting [5]); 1.7 µM (≈ 2.11 µg/mL) in the data set on M. tuberculosis H37Rv [2] (setting [6]); 1.6 to 1.7 µM (≈ 1.99 to 2.11 µg/mL) in the data set with M. tuberculosis H37Rv [2] (setting [7]).

These data come from PMC8586704 (Frontiers in Chemistry, 2021).
